Reference: patent publication US20240287029A1, “SULFONAMIDES, METHOD FOR PREPARATION THEREOF, AND USE THEREOF” (CHENGDU SHIBEIKANG BIOMEDICAL TECHNOLOGY CO., LTD., priority 2021, published 2024)
Marks after values point to notes of the source that are not given here.

Assays:
[1] = tested on: ammonia-induced coughs in mice; experiment: Mouse coughing test (concentrated ammonia induced cough); assay type: in vivo; settings: KM mice, 30 mg/kg intragastric; for Number of coughs: 30 min after administration; for Number of coughs / Number of coughs 60 min / Number of coughs 120 min: coughs within 3 min, group mean; for duration of cough-relieving action compared to Comparative Compound 1: 60 and 120 min; for Number of coughs 60 min: 60 min after administration; for Number of coughs 120 min: 120 min after administration
Text: Healthy adult KM mice, half male and half female, 6 mice in each group, each weighing about 28-30 g.
Most of the animal coughing models reported in the literature use mechanical, chemical and electrical stimulation to stimulate the animal's nerves and receptors to trigger coughing. Based on the characteristics of the candidate compounds and the existing similar target compounds as a reference, the concentrated ammonia induction method was preliminarily selected to establish a coughing model in mice.
Preparation of 50% aqueous ammonia solution: 2.5 ml aqueous ammonia was dissolved in a 5 ml injection solution of 0.9% sodium chloride, and mixed well.
Preparation of solutions of the positive control and Comparative Compound 1: each of 9 mg positive control and 9 mg Comparative Compound 1 was weighed and dissolved in a 3 ml solution of 0.5% CMC-Na, and fully mixed, to obtain a 3 mg/ml solution.
Preparation of solutions of the compounds of Examples: 9 mg of the compound of each Example was dissolved in a 3 ml solution of 0.5% CMC-Na, and mixed thoroughly, to obtain a 3 mg/ml solution.
Grouping: Comparative Example 1 group, Positive control group, Example group, Model group. Six KM mice in each group were intragastrically given Comparative Compound 1 (30 mg/kg), the positive control (Gefapixant, purchased, 30 mg/kg), and an Example compound (30 mg/kg), and the model group was given an equal volume of 0.5% CMC-Na solution. 30 min, 60 min, or 120 min after administration, each mouse was placed in a 500 ml beaker, and a cotton ball (weight: 100±5 mg) containing 0.3 ml 50% aqueous ammonia was placed in the beaker. The number of typical coughs by the mouse within 3 min was observed (typical cough: contraction of the abdominal muscle or contraction of the chest, accompanied by wide opening of the mouth and a coughing sound).
• (1) Cough judgment criteria: Cough was judged by contraction of the abdominal muscle or contraction of the chest, accompanied by wide opening of the mouth and a coughing sound. • (2) The number of coughs by the mice within 3 min was recorded with a stop watch, and statistically analyzed with software. The data of each group were statistically expressed in mean±standard deviation, and one-way ANOVA between multiple groups was performed, P<0.05 for statistically significant difference.

human P2X3 receptor = molecular target: T1, human P2X3 receptor (Homo sapiens, UniProt P56373); experiment: In vitro biological activity evaluation, P2X3 antagonist mode FLIPR assay with BZATP agonist
T1 sequence (P56373 1-397): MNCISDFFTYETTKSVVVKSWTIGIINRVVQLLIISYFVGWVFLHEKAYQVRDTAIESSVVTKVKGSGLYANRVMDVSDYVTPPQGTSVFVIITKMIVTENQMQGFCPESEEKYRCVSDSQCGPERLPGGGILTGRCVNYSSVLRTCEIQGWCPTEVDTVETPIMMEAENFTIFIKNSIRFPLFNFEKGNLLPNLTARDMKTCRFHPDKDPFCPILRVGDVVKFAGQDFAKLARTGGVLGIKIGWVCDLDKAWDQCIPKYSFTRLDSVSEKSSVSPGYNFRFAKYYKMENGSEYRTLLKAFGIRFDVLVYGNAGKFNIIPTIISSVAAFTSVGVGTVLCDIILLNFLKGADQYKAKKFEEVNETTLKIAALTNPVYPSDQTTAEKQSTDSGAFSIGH
Text: A HEK293 cell line stably transfected with human P2X3 receptor was used.

sense of taste of rats = experiment: Taste disorder test (quinine water / tap water two-bottle drinking); assay type: in vivo, SD rats; settings: 10 mg/kg intravenous; for effect on the sense of taste: quinine water/tap water ratio vs solvent group, in words; for Quinine water/tap water (%): SD rats, drinking 0 to 15 min after administration, 0.3 mM quinine
Protocol: Preparation of 0.3 mM quinine solution: 119.20 mg quinine hydrochloride was weighed and dissolved in 1,000 ml tap water, and mixed well.
Preparation of test sample solution: 40 mg of the test sample was weighed and added to an appropriate amount of DMSO and dissolved, then a solution of solubilizer HS-15 was added thereto and mixed well, and 16 ml saline was added, to obtain a solution of 2.5 mg/ml.
Animals and grouping: male SD rats each about 160 to 180 g, 10 rats per group, with similar average weight in each group, fed in separate cages.
Drinking habit training: the animals in each group were given normal drinking water for 30 minutes at 8:30 am and 4:30 pm every day, with water deprivation for the rest of the day, and trained for 5 days, wherein two bottles of water placed in the left and right positions respectively were renewed every day.
Administration: After water deprivation over the night before the experiment, on the next morning 4 mL/kg (10 mg/kg) of the test sample was injected intravenously in the tail vein of the rats in the test group, and 4 mL/kg (10 mg/kg) of 0.5% HS-15 was injected intravenously in the model group.
• (1) Drinking water measurement: after injection, the animals were put back to their original cages, and the measurement time of each group was in the window covering the Tmax of the drugs (the measurement time was from 0 min to 15 min after administration); in each cage a bottle of normal drinking water and a bottle of drinking water containing 0.3 mM quinine hydrochloride (Quinie) were placed, and the left and right positions of the two bottles in all cages were the same. The animals were allowed to drink freely for 15 min, and the volume of water consumed from the two bottles was measured separately, accurate to 0.1 ml. • (2) Statistical analysis of data: the volume of the consumed quinine bitter water and the volume of the consumed tap water were measured, the percentage of quinine water relative to tap water was calculated, and ANOVA was used to check whether there was a significant difference between the groups.

[2] = tested on: refractory or unexplained chronic cough in adult patients; settings: cited from earlier work

IC50 (human P2X3 receptor) [nM]	effect on the sense of taste (sense of taste of rats)	Quinine water/tap water (%) (sense of taste of rats)	Structure (SMILES)	Number of coughs [1]	duration of cough-relieving action compared to Comparative Compound 1 ([1]; in words)	Number of coughs 60 min [1]	Number of coughs 120 min [1]	primary endpoint ([2]; 15 mg twice daily)	24-hour cough frequency ([2]; 45 mg twice daily, Week 12 (COUGH-1) and Week 24 (COUGH-2), compared with placebo)	discontinuation due to adverse events ([2]; 45-mg group)	taste-related adverse events ([2]; 45-mg group)	cough relieving effect 120 min after administration ([1]; vs model group, in words)
10.1 to 100	–	–	C[C@@H](Cn1c(=O)nc(Nc2ccc(Oc3ccccn3)cc2)n(Cc2ccc(Cl)cc2)c1=O)C(=O)NS(=O)(=O)C(F)(F)F [Example 4]	28.61*	–	–	–	–	–	–	–	–
< 10	almost no effect	37.01%^Δ	C[C@@H](Cn1c(=O)nc(Nc2ccc(Oc3ccccn3)cc2)n(Cc2ccc(Cl)cc2)c1=O)C(=O)NS(C)(=O)=O [Example 1]	13.33**	significantly prolonged	18.37**	17.28**^Δ	–	–	–	–	–
< 10	–	–	CCS(=O)(=O)NC(=O)[C@@H](C)Cn1c(=O)nc(Nc2ccc(Oc3ccccn3)cc2)n(Cc2ccc(Cl)cc2)c1=O [Example 2]	17.12**	–	–	–	–	–	–	–	–
< 10	almost no effect	37.12%^Δ	CC(C)(Cn1c(=O)nc(Nc2ccc(Oc3ccccn3)cc2)n(Cc2ccc(Cl)cc2)c1=O)C(=O)NS(C)(=O)=O [Example 11]	17.62**	significantly prolonged	16.68**	18.90**^Δ	–	–	–	–	–
< 10	almost no effect	41.54%^Δ	CC(C)NS(=O)(=O)NC(=O)[C@@H](C)Cn1c(=O)nc(Nc2ccc(Oc3ccccn3)cc2)n(Cc2ccc(Cl)cc2)c1=O [Example 6]	20.60**	significantly prolonged	17.63**	28.78*^Δ	–	–	–	–	–
< 10	–	–	C[C@@H](Cn1c(=O)nc(Nc2ccc(Oc3ccccn3)cc2)n(Cc2ccc(Cl)cc2)c1=O)C(=O)O [Comparative Example 1, reference compound]	15.61**	–	22.29**	45.21	–	–	–	–	did not have an obvious cough relieving effect
< 10	almost no effect	39.39%^Δ	CS(=O)(=O)NC(=O)C1(Cn2c(=O)nc(Nc3ccc(Oc4ccccn4)cc3)n(Cc3ccc(Cl)cc3)c2=O)CC1 [Example 12]	19.39**	significantly prolonged	20.17**	24.14**^Δ	–	–	–	–	–
< 10	almost no effect	38.11%^Δ	C[C@@H](Cn1c(=O)nc(Nc2ccc(Oc3ccccn3)cc2)n(Cc2ccc(Cl)cc2)c1=O)C(=O)NS(=O)(=O)N(C)C [Example 3]	15.34**	significantly prolonged	16.98**	18.56**^Δ	–	–	–	–	–

More lines, now with the values behind:

Structure (SMILES)	IC50 (human P2X3 receptor) [nM]	effect on the sense of taste (sense of taste of rats)	Quinine water/tap water (%) (sense of taste of rats)	Number of coughs [1]	duration of cough-relieving action compared to Comparative Compound 1 ([1]; in words)	Number of coughs 60 min [1]	Number of coughs 120 min [1]	primary endpoint ([2]; 15 mg twice daily)	24-hour cough frequency ([2]; 45 mg twice daily, Week 12 (COUGH-1) and Week 24 (COUGH-2), compared with placebo)	discontinuation due to adverse events ([2]; 45-mg group)	taste-related adverse events ([2]; 45-mg group)	cough relieving effect 120 min after administration ([1]; vs model group, in words)
COc1cc(C(C)C)c(Oc2cnc(N)nc2N)cc1S(N)(=O)=O [Positive control, Gefapixant]	–	–	79.01%**	20.51**	–	–	–	did not meet the primary endpoint	statistically significant reduction	higher frequency	higher incidence	–
C[C@@H](Cn1c(=O)nc(Nc2ccc(Oc3ccc(OC(F)F)cn3)cc2)n(Cc2ccc(Cl)cc2)c1=O)C(=O)NS(=O)(=O)c1ccc(F)cc1 [Example 8, (S)-3-(3-(4-chlorobenzyl)-4-(4-(5-(5-(difluoromethoxy)pyridin-2-yl)oxyphenyl)amino)-2,6-dioxo-3,6-dihydro-1,3,5-triazin-1(2H)-yl)-N-(4-(4-fluorophenyl)sulfonyl)-2-methylpropionamide]	10.1 to 100	–	–	29.83*	–	–	–	–	–	–	–	–
C[C@@H](Cn1c(=O)nc(Nc2ccc(Oc3ccccn3)cc2)n(Cc2ccc(Cl)cc2)c1=O)C(=O)NS(=O)(=O)N1CCCC1 [Example 5]	< 10	–	–	12.85**	significantly prolonged	16.25**	23.11**^Δ	–	–	–	–	–
CNS(=O)(=O)NC(=O)[C@@H](C)Cn1c(=O)nc(Nc2ccc(Oc3ccc(Cl)cn3)cc2)n(Cc2ccc(Cl)cc2)c1=O [Example 10]	< 10	–	–	20.27**	significantly prolonged	20.33**	24.13**^Δ	–	–	–	–	–
C[C@@H](Cn1c(=O)nc(Nc2ccc(Oc3ccccn3)cc2)n(Cc2ccc(Cl)cc2)c1=O)C(=O)NS(=O)(=O)c1ccccc1 [Example 7]	10.1 to 100	–	–	28.66*	–	–	–	–	–	–	–	–
Cc1ccc(S(=O)(=O)NC(=O)[C@@H](C)Cn2c(=O)nc(Nc3ccc(Oc4ccccn4)cc3)n(Cc3ccc(Cl)cc3)c2=O)cc1 [Example 9]	10.1 to 100	–	–	25.11*	–	–	–	–	–	–	–	–
